Source: patent US11053204B2, “Pyrimidinyloxy benzene derivatives as herbicides” (FMC Corporation, priority 2015, dated 2021)

Key:
Assay type in all cases: in vivo
[1] = test system: barnyardgrass (Echinochloa crus-galli); assay: Test B flooded paddy test, plant response rating; details: 250 g ai/ha; Flood; scale of 0 to 100 where 0 is no effect and 100 is complete control; 13 to 15 days
Summary of the method: (§1)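 In-water treatment: compound dosed into 3 cm flood over soil, water level unchanged throughout. Controls run alongside; visual assessment at day 13–15.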

[2] = test system: ducksalad (Heteranthera limosa); assay: Test B flooded paddy test, plant response rating; details: 250 g ai/ha; Flood; scale of 0 to 100 where 0 is no effect and 100 is complete control; 13 to 15 days
Summary of the method: as §1

[3] = test system: sedge, umbrella (small-flower umbrella sedge, Cyperus difformis); assay: Test B flooded paddy test, plant response rating; details: 250 g ai/ha; Flood; scale of 0 to 100 where 0 is no effect and 100 is complete control; 13 to 15 days
Summary of the method: as §1

[4] = test system: rice (Oryza sativa); assay: Test B flooded paddy test, plant response rating; details: 250 g ai/ha; Flood; scale of 0 to 100 where 0 is no effect and 100 is complete control; 13 to 15 days
Summary of the method: as §1

[5] = test system: blackgrass (Alopecurus myosuroides); assay: Test A postemergence, visual injury rating; details: 0 is no effect, 100 is complete control
Summary of the method: (§2)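 Scoring: eye-based comparison with untreated controls, 0 for no effect through 100 for complete control, at about day 10. Treatments: directed soil spray preemergence; foliar spray postemergence on 2–10 cm plants at the one- to two-leaf stage. Medium: loam soil with sand.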

[6] = test system: barnyardgrass (Echinochloa crus-galli); assay: Test A postemergence, visual injury rating; details: 0 is no effect, 100 is complete control
Summary of the method: as §2

[7] = test system: pigweed (Amaranthus retroflexus); assay: Test A postemergence, visual injury rating; details: 0 is no effect, 100 is complete control
Summary of the method: as §2

[8] = test system: ragweed (common ragweed, Ambrosia elatior); assay: Test A postemergence, visual injury rating; details: 0 is no effect, 100 is complete control
Summary of the method: as §2

[9] = test system: kochia (Kochia scoparia); assay: Test A postemergence, visual injury rating; details: 0 is no effect, 100 is complete control
Summary of the method: as §2

[10] = test system: Italian ryegrass (Lolium multiflorum); assay: Test A postemergence, visual injury rating; details: 0 is no effect, 100 is complete control
Summary of the method: as §2

[11] = test system: corn (Zea mays); assay: Test A postemergence, visual injury rating; details: 0 is no effect, 100 is complete control
Summary of the method: as §2

[12] = test system: wheat (Triticum aestivum); assay: Test A postemergence, visual injury rating; details: 0 is no effect, 100 is complete control
Summary of the method: as §2

[13] = test system: galium (catchweed bedstraw, Galium aparine); assay: Test A postemergence, visual injury rating; details: 0 is no effect, 100 is complete control
Summary of the method: as §2

[14] = test system: giant foxtail (Setaria faberii); assay: Test A postemergence, visual injury rating; details: 0 is no effect, 100 is complete control
Summary of the method: as §2

[15] = test system: barnyardgrass (Echinochloa crus-galli); assay: Test A preemergence, visual injury rating; details: for Barnyardgrass plant response rating: 0 to 100 scale (0 no effect, 100 complete control)
Summary of the method: as §2

[16] = test system: pigweed (Amaranthus retroflexus); assay: Test A preemergence, visual injury rating; details: for Pigweed plant response rating: 0 to 100 scale (0 no effect, 100 complete control)
Summary of the method: as §2

[17] = test system: ragweed (common ragweed, Ambrosia elatior); assay: Test A preemergence, visual injury rating; details: for Ragweed plant response rating: 0 to 100 scale (0 no effect, 100 complete control)
Summary of the method: as §2

[18] = test system: kochia (Kochia scoparia); assay: Test A preemergence, visual injury rating; details: for Kochia plant response rating: 0 to 100 scale (0 no effect, 100 complete control)
Summary of the method: as §2

[19] = test system: Italian ryegrass (Lolium multiflorum); assay: Test A preemergence, visual injury rating; details: for Ryegrass, Italian plant response rating: 0 to 100 scale (0 no effect, 100 complete control)
Summary of the method: as §2

[20] = test system: giant foxtail (Setaria faberii); assay: Test A preemergence, visual injury rating; details: for Foxtail, Giant plant response rating: 0 to 100 scale (0 no effect, 100 complete control)
Summary of the method: as §2

[21] = 31 g ai/ha, 0 to 100 scale, approximately 10 days
[22] = 31 g ai/ha, 0 to 100 scale, 0 no effect, 100 complete control

C=C(Cl)COC(=O)c1c(Br)cccc1Oc1ncc(Cl)cn1 [Compound 2]
100: Plant response rating, Sedge, Umbrella [3] | Foxtail, Giant plant response rating ([20]; 125 g ai/ha)
60: Pigweed plant response rating [7, 21] | Galium plant response rating [13, 21] | Foxtail, Giant plant response rating (0 to 100 scale) ([14]; 125 g ai/ha)
40: Barnyardgrass plant response rating (0 to 100 scale) ([6]; 125 g ai/ha) | Plant response rating, Pigweed [16, 22]
90: Kochia plant response rating (0 to 100 scale) ([9]; 125 g ai/ha) | Galium plant response rating (0 to 100 scale) ([13]; 125 g ai/ha) | Pigweed plant response rating ([16]; 125 g ai/ha)
0: Plant response rating, Barnyardgrass [1] | Plant response rating, Rice [4] | Blackgrass plant response rating [5, 21] | Ragweed plant response rating [8, 21] | Ragweed plant response rating (0 to 100 scale) ([8]; 125 g ai/ha) | Ryegrass, Italian plant response rating [10, 21] | Wheat plant response rating [12, 21] | Wheat plant response rating (0 to 100 scale) ([12]; 125 g ai/ha) | Plant response rating, Ragweed [17, 22] | Ragweed plant response rating ([17]; 125 g ai/ha) | Plant response rating, Ryegrass, Italian [19, 22]
30: Plant response rating, Ducksalad [2] | Blackgrass plant response rating (0 to 100 scale) ([5]; 125 g ai/ha) | Barnyardgrass plant response rating [6, 21] | Foxtail, Giant plant response rating [14, 21] | Plant response rating, Kochia [18, 22]
70: Kochia plant response rating ([18]; 125 g ai/ha) | Plant response rating, Foxtail, Giant [20, 22]
20: Ryegrass, Italian plant response rating (0 to 100 scale) ([10]; 125 g ai/ha) | Corn plant response rating (0 to 100 scale) ([11]; 125 g ai/ha)
50: Kochia plant response rating [9, 21] | Barnyardgrass plant response rating ([15]; 125 g ai/ha)
80: Pigweed plant response rating (0 to 100 scale) ([7]; 125 g ai/ha)
10: Corn plant response rating [11, 21] | Plant response rating, Barnyardgrass [15, 22] | Ryegrass, Italian plant response rating ([19]; 125 g ai/ha)

O=C(OCC(F)(F)F)c1c(F)cccc1Oc1ncc(Cl)cn1 [Compound 48]
20: Plant response rating, Barnyardgrass [1] | Plant response rating, Rice [4] | Blackgrass plant response rating (0 to 100 scale) ([5]; 500 g ai/ha) | Pigweed plant response rating (0 to 100 scale) ([7]; 125 g ai/ha) | Foxtail, Giant plant response rating (0 to 100 scale) ([14]; 500 g ai/ha)
0: Plant response rating, Ducksalad [2] | Plant response rating, Sedge, Umbrella [3] | Blackgrass plant response rating (0 to 100 scale) ([5]; 125 g ai/ha) | Barnyardgrass plant response rating (0 to 100 scale) ([6]; 125 g ai/ha) | Ragweed plant response rating (0 to 100 scale) ([8]; 125 g ai/ha) | Ragweed plant response rating (0 to 100 scale) ([8]; 500 g ai/ha) | Kochia plant response rating (0 to 100 scale) ([9]; 125 g ai/ha) | Kochia plant response rating (0 to 100 scale) ([9]; 500 g ai/ha) | Ryegrass, Italian plant response rating (0 to 100 scale) ([10]; 125 g ai/ha) | Ryegrass, Italian plant response rating (0 to 100 scale) ([10]; 500 g ai/ha) | Corn plant response rating (0 to 100 scale) ([11]; 125 g ai/ha) | Corn plant response rating (0 to 100 scale) ([11]; 500 g ai/ha) | Wheat plant response rating (0 to 100 scale) ([12]; 125 g ai/ha) | Wheat plant response rating (0 to 100 scale) ([12]; 500 g ai/ha) | Galium plant response rating (0 to 100 scale) ([13]; 125 g ai/ha) | Foxtail, Giant plant response rating (0 to 100 scale) ([14]; 125 g ai/ha) | Barnyardgrass plant response rating ([15]; 125 g ai/ha) | Pigweed plant response rating ([16]; 125 g ai/ha) | Pigweed plant response rating ([16]; 500 g ai/ha) | Ragweed plant response rating ([17]; 125 g ai/ha) | Ragweed plant response rating ([17]; 500 g ai/ha) | Kochia plant response rating ([18]; 125 g ai/ha) | Kochia plant response rating ([18]; 500 g ai/ha) | Ryegrass, Italian plant response rating ([19]; 125 g ai/ha) | Ryegrass, Italian plant response rating ([19]; 500 g ai/ha) | Foxtail, Giant plant response rating ([20]; 125 g ai/ha)
30: Barnyardgrass plant response rating (0 to 100 scale) ([6]; 500 g ai/ha)
10: Galium plant response rating (0 to 100 scale) ([13]; 500 g ai/ha) | Barnyardgrass plant response rating ([15]; 500 g ai/ha) | Foxtail, Giant plant response rating ([20]; 500 g ai/ha)
40: Pigweed plant response rating (0 to 100 scale) ([7]; 500 g ai/ha)
